The text below walks through data of patent publication US9931327B2, “Derivatives of 1-phenyl-2-pyridinyl alkyl alcohols as phosphodiesterase inhibitors” (Chiesi Farmaceutici S.p.A., priority 2011, dated 2018).

This assay deals with LPS-induced TNF-α release in peripheral blood mononuclear cells (PBMCs). As to the kind of experiment: In vitro determination of PDE4 inhibitory activity in the PBMCs assay (LPS-induced TNF-α release). The format is cell-based, human. The settings on record: PBMC; human PBMCs, LPS 3 ng/ml, 18 hours, TNF-α by ELISA; read-out: PDE4 inhibition (IC50, 50% inhibition of LPS-induced TNF-α release). A digest of the protocol:
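Cryopreserved human PBMCs (10^5 cells/well) pre-incubated 30 min with compound (10^−12 to 10^−6 M or 10^−3 to 10^−7 M), then stimulated with LPS 3 ng/ml for 18 h at 37 °C. TNF-α in medium by ELISA; IC50 as mean ± 95% confidence limits.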
On the technique in general: An ELISA detects its analyte on a solid surface through an enzyme-linked reagent.
In general, IC50 refers to the concentration at which inhibition is half-maximal. Take `NC(=O)Nc1cccc(S(=O)(=O)N2CCS[C@H]2C(=O)O[C@@H](Cc2c(Cl)c[n+]([O-])cc2Cl)c2ccc(OC(F)F)c(OCC3CC3)c2)c1` [Compound 269, 3,5-dichloro-4-((S)-2-(3-(cyclopropylmethoxy)-4-(difluoromethoxy)phenyl)-2-((S)-3-(3-ureidophenylsulfonyl)thiazolidine-2-carbonyloxy)ethyl)pyridine 1-oxide]: the IC50 was less than 0.1 nM.
In the case of `O=C(O[C@@H](Cc1c(Cl)c[n+]([O-])cc1Cl)c1ccc(OC(F)F)c(OCC2CC2)c1)[C@@H]1SCCN1S(=O)(=O)c1ccco1` [Compound 95, 3,5-dichloro-4-((S)-2-(3-(cyclopropylmethoxy)-4-(difluoromethoxy)phenyl)-2-((S)-3-(furan-2-ylsulfonyl)thiazolidine-2-carbonyloxy)ethyl)pyridine 1-oxide], the IC50 is less than 0.1 nM.
As for `Nc1ccc(S(=O)(=O)N2CCS[C@H]2C(=O)O[C@@H](Cc2c(Cl)c[n+]([O-])cc2Cl)c2ccc(OC(F)F)c(OCC3CC3)c2)cc1` [Compound 150, 4-((S)-2-((S)-3-(4-aminophenylsulfonyl)thiazolidine-2-carbonyloxy)-2-(3-(cyclopropylmethoxy)-4-(difluoromethoxy)phenyl)ethyl)-3,5-dichloropyridine 1-oxide], the figure is less than 0.1 nM; as for `COc1ccc(S(=O)(=O)N2CCC[C@H]2C(=O)O[C@@H](Cc2c(Cl)c[n+]([O-])cc2Cl)c2ccc(OC(F)F)c(OCC3CC3)c2)cc1OC` [Compound 53, 3,5-dichloro-4-((S)-2-(3-(cyclopropylmethoxy)-4-(difluoromethoxy)phenyl)-2-((S)-1-(3,4-dimethoxyphenylsulfonyl)pyrrolidine-2-carbonyloxy)ethyl)pyridine 1-oxide], 0.1 to 1 nM.
Turning to `O=C(O[C@@H](Cc1c(Cl)c[n+]([O-])cc1Cl)c1ccc(OC(F)F)c(OCC2CC2)c1)C1SCCN1S(=O)(=O)C1CCCCC1` (stereo partly drawn) [Compound 71, 3,5-dichloro-4-((2S)-2-(3-(cyclohexylsulfonyl)thiazolidine-2-carbonyloxy)-2-(3-(cyclopropylmethoxy)-4-(difluoromethoxy)phenyl)ethyl)pyridine 1-oxide], the IC50 was 1 to 10 nM.
The value for `CS(=O)(=O)Nc1cc(C(=O)N2CCC[C@H]2C(=O)O[C@@H](Cc2c(Cl)c[n+]([O-])cc2Cl)c2ccc(OC(F)F)c(OCC3CC3)c2)ccc1OCC1CC1` [Compound 19, 3,5-dichloro-4-((S)-2-((S)-1-(4-(cyclopropylmethoxy)-3-(methylsulfonamido)benzoyl)pyrrolidine-2-carbonyloxy)-2-(3-(cyclopropylmethoxy)-4-(difluoromethoxy)phenyl)ethyl)pyridine 1-oxide] was 1 to 10 nM; that for `CN(C)C(=O)c1cccc(CS(=O)(=O)N2CCS[C@H]2C(=O)O[C@@H](Cc2c(Cl)c[n+]([O-])cc2Cl)c2ccc(OC(F)F)c(OCC3CC3)c2)c1` [Compound 295, 3,5-dichloro-4-((S)-2-(3-(cyclopropylmethoxy)-4-(difluoro-methoxy)phenyl)-2-((S)-3-(3-(dimethylcarbamoyl)benzylsulfonyl)-thiazolidine-2-carbonyloxy)ethyl)pyridine 1-oxide] was 0.1 to 1 nM; that for `O=C(O[C@@H](Cc1c(Cl)c[n+]([O-])cc1Cl)c1ccc(OC(F)F)c(OCC2CC2)c1)[C@@H]1SCCN1S(=O)(=O)c1ccoc1` [Compound 96, 3,5-dichloro-4-((S)-2-(3-(cyclopropylmethoxy)-4-(difluoromethoxy)phenyl)-2-((S)-3-(furan-3-ylsulfonyl)thiazolidine-2-carbonyloxy)ethyl)pyridine 1-oxide] was less than 0.1 nM.
For `O=C(O[C@@H](Cc1c(Cl)c[n+]([O-])cc1Cl)c1ccc(OC(F)F)c(OCC2CC2)c1)C1SCCN1S(=O)(=O)c1ccc(N2CCOCC2)nc1` (stereo partly drawn) [Compound 74, 3,5-dichloro-4-((2S)-2-(3-(cyclopropylmethoxy)-4-(difluoromethoxy)phenyl)-2-(3-(6-morpholinopyridin-3-ylsulfonyl)thiazolidine-2-carbonyloxy)ethyl)pyridine 1-oxide], the IC50 was less than 0.1 nM.
For `COc1ccc(S(=O)(=O)N2CCSC2C(=O)O[C@@H](Cc2c(Cl)c[n+]([O-])cc2Cl)c2ccc(OC(F)F)c(OCC3CC3)c2)cc1OC` (stereo partly drawn) [Compound 73, 3,5-dichloro-4-((2S)-2-(3-(cyclopropylmethoxy)-4-(difluoromethoxy)phenyl)-2-(3-(3,4-dimethoxyphenylsulfonyl)thiazolidine-2-carbonyloxy)ethyl)pyridine 1-oxide], the IC50 is less than 0.1 nM.
In the case of `COC(=O)c1ccc(S(=O)(=O)N2CCS[C@H]2C(=O)O[C@@H](Cc2c(Cl)c[n+]([O-])cc2Cl)c2ccc(OC(F)F)c(OCC3CC3)c2)cc1` [Compound 100, 3,5-dichloro-4-((S)-2-(3-(cyclopropylmethoxy)-4-(difluoromethoxy)phenyl)-2-((S)-3-(4-(methoxycarbonyl)phenylsulfonyl)thiazolidine-2-carbonyloxy)ethyl)pyridine 1-oxide], the IC50 is 1 to 10 nM.
As for `N#Cc1ccccc1S(=O)(=O)N1CCS[C@H]1C(=O)O[C@@H](Cc1c(Cl)c[n+]([O-])cc1Cl)c1ccc(OC(F)F)c(OCC2CC2)c1` [Compound 200, 3,5-dichloro-4-((S)-2-((S)-3-(2-cyanophenylsulfonyl)thiazolidine-2-carbonyloxy)-2-(3-(cyclopropylmethoxy)-4-(difluoromethoxy)phenyl)ethyl)pyridine 1-oxide], the figure is 0.1 to 1 nM; as for `CN(C)Cc1cccc(C(=O)N2CCSC2C(=O)O[C@@H](Cc2c(Cl)c[n+]([O-])cc2Cl)c2ccc(OC(F)F)c(OCC3CC3)c2)c1` (stereo partly drawn) [Compound 34, 3,5-dichloro-4-((2S)-2-(3-(cyclopropylmethoxy)-4-(difluoromethoxy)phenyl)-2-(3-(3-((dimethylamino)methyl)benzoyl)thiazolidine-2-carbonyloxy)ethyl)pyridine 1-oxide], 0.1 to 1 nM.
Turning to `COc1ccc(S(=O)(=O)N2CCC[C@H]2C(=O)O[C@@H](Cc2c(Cl)c[n+]([O-])cc2Cl)c2ccc(OC(F)F)c(OCC3CC3)c2)cc1C(=O)N(C)C` [Compound 124, 3,5-dichloro-4-((S)-2-(3-(cyclopropylmethoxy)-4-(difluoromethoxy)phenyl)-2-((S)-1-(3-(dimethylcarbamoyl)-4-methoxyphenylsulfonyl)pyrrolidine-2-carbonyloxy)ethyl)pyridine 1-oxide], the IC50 was less than 0.1 nM.
The value for `COc1ccc(S(=O)(=O)N2CCS[C@H]2C(=O)O[C@@H](Cc2c(Cl)c[n+]([O-])cc2Cl)c2ccc(OC(F)F)c(OCC3CC3)c2)cc1OC` [Compound 93, 3,5-dichloro-4-((S)-2-(3-(cyclopropylmethoxy)-4-(difluoromethoxy)phenyl)-2-((S)-3-(3,4-dimethoxyphenylsulfonyl)thiazolidine-2-carbonyloxy)ethyl)pyridine 1-oxide] was less than 0.1 nM; that for `COc1cc(C)ccc1S(=O)(=O)N1CCS[C@H]1C(=O)O[C@@H](Cc1c(Cl)c[n+]([O-])cc1Cl)c1ccc(OC(F)F)c(OCC2CC2)c1` [Compound 106, 3,5-dichloro-4-((S)-2-(3-(cyclopropylmethoxy)-4-(difluoromethoxy)phenyl)-2-((S)-3-(2-methoxy-4-methylphenylsulfonyl)thiazolidine-2-carbonyloxy)ethyl)pyridine 1-oxide] was less than 0.1 nM.
